The record followed here is patent US20260000600A1, “PHARMACEUTICAL COMPOSITION FOR PREVENTING OR TREATING INFLAMMATORY DISEASES COMPRISING PEGYLATED BILIRUBIN” (BILIX CO., LTD., priority 2022, published 2026).

Test [1] has as its system IMQ-induced psoriasis mouse model. As to the kind of experiment: IMQ-induced psoriasis mouse model. It counts as in vivo, C57BL/6 male mouse. As to conditions: 0.05% Clobetasol propionate, 62.5 mg/animal, topical daily; Vehicle 10.50±0.47. The text has this:
An IMQ-induced psoriasis mouse model was created by applying Aldara™ (imiquimod, IMQ) cream to the back skin of an 8-week-old C57BL/6 male mouse a total of 7 times from Day 0 to Day 6. With respect to a normal group in which IMQ cream was not applied (Normal group), as negative control groups, a group in which no additional substances were applied in the process of inducing psoriasis (No Treatment group) and a group in which excipients were applied to the skin (Vehicle group), and as a positive control group, a group in which the previously-approved drug Betabate was applied (Clobetasol propionate group, 0.05% Clobetasol propionate, 62.5 mg/animal), the test substance Brixelle (30 mg/kg) was applied to the skin every day from Day 0, thus to evaluate its effectiveness. Clinical symptoms were evaluated during the process of inducing psoriasis, and skin tissues were secured after the survival test was completed for further analysis.
To quantify the clinical symptoms of psoriasis, for three (3) clinical index items including 1) erythema (redness), 2) scaling and 3) skin thickness, a clinical score was measured on a scale out of 4 (modified psoriasis area and severity index, PASI). […] The results of the graph were expressed as mean±SEM. […]

In test [2] the test system is HDM-induced atopic dermatitis mouse model. The test is described as follows: HDM-induced atopic dermatitis mouse model (2), comparison with approved drugs. The test is classed as in vivo, NC/Nga female mice. As to conditions: 0.1% Dexamethasone, 62.5 mg/animal. Here is the method: (§1) An HDM-induced atopic dermatitis mouse model was created by applying HDM antigen ointment to the back and ear skin of 6 to 10-week-old NC/Nga female mice a total of 7 times on Days 0, 7, 10, 14, 17, 21 and 24. […] Clinical symptoms were evaluated during the process of inducing atopic dermatitis, and skin tissues were secured after the survival test was completed for further analysis.
(§2) To quantify the clinical symptoms of atopic dermatitis, for four (4) clinical index items including 1) erythema/hemorrhage, 2) scarring/dryness, 3) edema and 4) excoriation/maceration (erosion), a clinical score was measured on a Likert scale out of 3. H&E staining was performed to observe histological changes in the skin for atopic dermatitis, while dihydroethidium (DHE) staining was performed to measure ROS in skin tissues. Further, in order to identify the mast cells and eosinophils infiltrated in the skin tissues, Toluidine blue staining and Congo red staining were performed, respectively. To measure IL-4 and IL-13, which are inflammatory mediators known to be highly related to atopic dermatitis, ELISA was performed on the skin tissues. The results of the graph were expressed as mean±SEM. The statistical analysis was performed using the GraphPad program to confirm statistical significance with the Vehicle group through one-way ANOVA, followed by Dunnett's multiple comparison method (*p<0.05, **p<0.01, ***p<0.001, ****p<0.0001).

Test [3] shares this test system. As to the kind of experiment: HDM-induced atopic dermatitis mouse model (1), dose dependence. It counts as in vivo, NC/Nga female mice. As to conditions: 0.1% Dexamethasone, 62.5 mg/animal. Here is the method: as §1
as §2, with “respectively.” for “respectively. To measure IL-4 and IL-13, which are inflammatory mediators known to be highly related to atopic dermatitis, ELISA was performed on the skin tissues.”

Test [4] deals with DNFB-induced contact dermatitis mouse model. The test is described as follows: DNFB-induced contact dermatitis mouse model. As to conditions: 0.1% Dexamethasone, 62.5 mg/animal, topical daily; Vehicle 0.94±0.01. It counts as in vivo, C57BL/6 NC/Nga male mice. From the text: A DNFB-induced contact dermatitis mouse model was created using 6 to 10-week-old C57BL/6 NC/Nga male mice and Mouse 2, 4 Dinitrofluorobenzene (DNFB). On Days 0 and 1, 0.5% DNFB solution (acetone:olive oil=4:1) was applied to the back skin to sensitize them, and then on Day 7, 0.3% DNFB solution was applied to the ear skin to induce contact dermatitis. With respect to a normal group in which the DNFB solution was not applied (Normal group), as negative control groups, a group in which no additional substances were applied in the process of inducing contact dermatitis (No Treatment group) and a group in which excipients were applied to the skin (Vehicle group), and as a positive control group, a group in which the previously-approved drug Maxidex was applied (Dexamethasone group, 0.1% Dexamethasone, 62.5 mg/animal), the test substance Brixelle (30 mg/kg) was applied to the skin every day from Day 0, thus to evaluate its effectiveness. Clinical symptoms were evaluated during the process of inducing contact dermatitis, and skin tissues were secured after the survival test was completed for further analysis.
Ear thickness was measured to evaluate edema, a clinical symptom of contact dermatitis. […] The results of the graph were expressed as mean±SEM. […]

Molecules are shown by their SMILES.

On to `CCC(=O)O[C@]1(C(=O)CCl)[C@@H](C)C[C@H]2[C@@H]3CCC4=CC(=O)C=C[C@]4(C)[C@@]3(F)[C@@H](O)C[C@@]21C` [Clobetasol propionate], for which the “clinical score (modified PASI)” value in test [1] was 7.25±0.21.

`C[C@@H]1C[C@H]2[C@@H]3CCC4=CC(=O)C=C[C@]4(C)[C@@]3(F)[C@@H](O)C[C@]2(C)[C@@]1(O)C(=O)CO` [Dexamethasone]: the “clinical score (atopic dermatitis)” value amounted to 3.75±0.99 in test [2] (topical daily from Day 7, Vehicle 9.58±0.64) and 4.90±0.76 in test [3] (topical daily from Day 7, Vehicle 9.44±0.77, mean±SEM). Also, the “eosinophil infiltration (Congo red staining)” value was 10.25±2.56 in test [2] (Vehicle 40.06±5.95) and 18.88±1.64 in test [3] (Vehicle 35.50±1.37). Moreover, the figures for the “mast cell infiltration (Toluidine blue staining)” value in test [2] (Vehicle 56.81±1.99) and in test [3] (Vehicle 52.69±2.19) were 20.69±5.25 and 27.38±3.19, respectively. In addition, the “thickness of the ear skin” value in test [4] is recorded as 0.67±0.02.
